One data set relates to granulocytes. Description: Chemotaxis assay (trans-well assay for macrophage mobilization). It is filed as cell-based. An excerpt: Concentration-dependent granulocyte activation of N-formyl peptide conjugates has been compared with activation of the peptide only. Each series of experiments has been repeated 3 times with 200,000 granulocytes each. […] Therefore, variations in the formyl peptide amino acid composition, e.g. different amino acid residues at position 3 (phenylalanine, proline) as in structure 1 and structure 2, provide a further means to tune the immune response.

The next data set has as its target T1, human EGFR/Erb-B1 (Homo sapiens, UniProt P00533).
T1 construct: purchased
In words: Fluorescence spectroscopy binding/displacement test with NBD-labelled 12mer tracer and EGFR.

The nature of another data set: Solubility at pH 7. Format: physicochemical. An excerpt:
(§1) The peptide SEQ ID NO 1, […] showing specific binding activity to the tumor marker Erb-B1/EGFR was chosen as binder and the macrophage-activating peptide formyl-MLP as effector to synthesize structure 1. The structure was synthesized chemically by standard methods known in the art and purified by ion exchange chromatography. Chemical identity was verified by mass spectrometry.

A short description of data set [1]: Size exclusion chromatography and dynamic light scattering analysis. The settings on record: size exclusion chromatography, dynamic light scattering. It is filed as physicochemical.
From the text: as §1
Background: SEC sorts molecules by how far they enter the pores of the column.

No end group written: not given here. *: point of attachment. For = O=C*

Consider “N-formyl-Met-Leu-Pro (For-Met-Leu-Pro) [fMLP]”, for which the “stimulation of granulocyte chemotaxis” value with granulocytes (separate experiment) is given as “can be stimulated”.

On to “YHWYGYTPQNVI [unlabelled peptide, reference compound]”, for which the “displacement of fluorescent tracer peptide from EGFR complex (fluorescence intensity)” value with human EGFR/Erb-B1 (EGFR-tracer complex 50 nM, PBS pH 7.5, 10 fold excess of unlabelled peptide (FIG. 5c)) was “decrease in fluorescence intensity”.

With “N-formyl-Met-Leu-Phe (For-Met-Leu-Phe) [fMLF]”, the “stimulation of granulocyte chemotaxis” value in the data set with granulocytes (separate experiment) is reported as “can be stimulated”. The “chemotactic response compared to fMLP” value with granulocytes (separate experiment, granulocytes) was “slightly higher”.

As a reminder, the solubility is how much of the substance goes into solution per volume. Low values mean a poorly soluble substance, high ones a readily soluble substance. Regarding `CC[C@H](C)[C@H](NC(=O)[C@@H](NC(=O)[C@H](CC(N)=O)NC(=O)[C@H](CCC(N)=O)NC(=O)[C@@H]1CCCN1C(=O)[C@@H](NC(=O)[C@H](Cc1ccc(O)cc1)NC(=O)CNC(=O)[C@H](Cc1ccc(O)cc1)NC(=O)[C@H](Cc1c[nH]c2ccccc12)NC(=O)[C@H](Cc1c[nH]cn1)NC(=O)[C@@H](N)Cc1ccc(O)cc1)[C@@H](C)O)C(C)C)C(=O)NCCOCCOCCOCCOCCOCCOCCOCCOCCOCCOCCOCCOCCOCCOCCOCCOCCOCCOCCOCCOCCOCCOCCOCCOCCOCCOCCOCCOCCC(=O)NCCCC[C@H](NC(=O)[C@H](CCCCNC(=O)CCOCCOCCOCCOCCOCCOCCOCCOCCOCCOCCOCCOCCOCCOCCOCCOCCOCCOCCOCCOCCOCCOCCOCCOCCOCCOCCOCCOCCNC(=O)[C@@H](NC(=O)[C@@H](NC(=O)[C@H](CC(N)=O)NC(=O)[C@H](CCC(N)=O)NC(=O)[C@@H]1CCCN1C(=O)[C@@H](NC(=O)[C@H](Cc1ccc(O)cc1)NC(=O)CNC(=O)[C@H](Cc1ccc(O)cc1)NC(=O)[C@H](Cc1c[nH]c2ccccc12)NC(=O)[C@H](Cc1c[nH]cn1)NC(=O)[C@@H](N)Cc1ccc(O)cc1)[C@@H](C)O)C(C)C)[C@@H](C)CC)NC(=O)[C@@H]1CCCN1C(=O)[C@H](CC(C)C)NC(=O)[C@H](CCSC)NC=O)C(=O)O` [structure 1], the “displacement of fluorescent tracer peptide from EGFR complex” value at human EGFR/Erb-B1 (1 µM EGFR/NBD-12mer complex titrated with increasing concentrations (FIG. 5d)) was “displacement of the fluorescent tracer”. Also, the “KD value for the interaction with EGFR” value at human EGFR/Erb-B1 (displacement of fluorescently labelled 12mer from EGFR complex, estimated) is “low nM range”. Besides, the solubility in the data set “Solubility at pH 7” was ≤ 10000 µg/mL. Moreover, in data set [1], the “oligomers or large aggregates” value is listed as “no oligomers or large aggregates”. Besides, the macrophage activation profile result in the data set on granulocytes (trans-well assay) was “demonstrated”.

The values are drawn from patent publication US10202421B2, “Tumor-targeting compounds” (SKU Asset Management GmbH, priority 2009, dated 2019).
